# Reference: US10179355B2, “Bioremediation enhancing agents and methods of use” (JRW BIOREMEDIATION, LLC, priority 2007, dated 2019)
# Assays:
# [1] = system: dechlorinating bacteria known to convert PCE to ethene; assay: Set B: Efficiency of electron donor utilization by COD analysis; format: cell-based, Dehalococcoides and Dehalobacter spp.
# Description: Sets B, C, D, E, and G further contain figures and tables showing results of the characterization of the Efficiency and the Relative Efficiency of electron donor usage. Efficiency may be defined as the percent of electron donor utilized for dechlorination, and may be calculated by dividing the pmoles of Chloride ion generated by the pmoles of electron donor consumed as measured by either Volatile Fatty Acid (VFA) analysis (Sets B, C, and G) or Chemical Oxygen Demand (COD) analysis (Set D and E). The Relative Efficiency of the electron donor utilization may be defined as the Efficiency of the Electron Donor divided by the Efficiency of the Lactate Control.
# Table 10 and FIG. 9 show the efficiency of electron donor (e^−) utilization as measured by COD analysis. The COD analysis calculates the utilization of electron donor by measuring the starting COD and the final COD taking the difference and converting mg/L to pmoles of electrons. The pmoles of electrons used for dechlorination was determined from the calculated Chloride produced leading to an Efficiency and Relative Efficiency of electron donor utilization as compared to lactate.
# [2] = system: dechlorinating bacteria known to convert PCE to ethene; assay: Set D: Lactic Acid Solids, PCE dechlorination microcosms (kinetics, Relative Rate); format: cell-based, Dehalococcoides and Dehalobacter spp.
# Description: Certain contaminated materials (or sites) may contain indigenous microbial communities that are sufficient for complete bioremediation of contaminants. For such sites, there is no need to add microbes unless the indigenous microbes are genetically deficient in achieving the desired clean-up goals. For those sites that are microbiologically limited, microorganisms may be added to the contaminated materials (or sites). In one embodiment, the inoculum may be a mixed culture of halo-respiring bacteria that have been enriched to reach an optimal cell density. These mixed cultures of halo-respiring bacteria may be typically obtained from sediment samples from rivers, streams or any waterways. More specifically, the inoculum used in the Examples was originated from a Sangamon River sediment sample (Lodge Park, Piatt County, Ill.) See, e.g., Brennan, R. A., Sanford, R. A. and […]. (2006). “Biodegradation of Tetrachloroethene by Chitin Fermentation Products in a Continuous Flow Column System.” Journal of Environ. Engr., June 665-673. […] Brennan, R. A., and Sanford, R. A. (2002). “Continuous steady-state method using Tenax for delivering tetrachloroethene to chlororespiring bacteria.” Appl. Environ. […] Using 16S rRNA gene-specific primers, both Dehalococcoides and Dehalobacter spp. were detected. […] For purpose of this disclosure, each bottle may be started with a certain amount of PCE. At subsequent times each bottle may be sampled for the degradation daughter products of PCE, namely trichloroethene (TCE), cis-dichloroethene (DCE), vinyl chloride (VC) and ethene, etc. […] The rate of degradation may be determined by calculating the number of pmoles of chloride ions removed from PCE and subsequently from the amounts of the daughter products generated. The calculation may be performed as follows: […] Next, the dechlorination rate may be determined for each bottle at each time by dividing the Chloride generated by the time (days). […] This ratio is called Relative Rate and is dimensionless. As shown in the Examples, a paired t-test has been conducted to calculate the probability that the Relative Rate of one group (i.e. with Nutrient) is greater than the other group (i.e. without Nutrient). The null hypothesis is that the underlying means of the two paired groups are equal. The Probability that one group has higher Relative Rates than the other group is shown in various tables in the Examples. […] Lactic Acid Solids is a mixture of lactic acid, oligimers of lactic acid and residual sugars. […] In addition, this set was used to characterize if and to what extent the Lactic Acid Solids was an efficacious electron donor for anaerobic bioremediation of contaminants in water.
smiles,measurement,setting,value
"CC(O)C(=O)[O-].[Na+] (stereo not shown) [Lactate Control, sodium lactate]",% of e^− used for dechlor.,[1],13.1%
same,Chloride,[1]; Efficiency by COD analysis,77.16 pmol
same,Relative Efficiency,[1]; relative to Lactate Control,100%
same,Cl^− Rate ± s.d.,[2]; 0 days,0.00 ± 0.00 µmol
same,Cl^− ± s.d.,[2]; 0 days,0.00 ± 0.00 µmol
same,DCE ± s.d.,[2]; 0 days,0.00 ± 0.00 µmol
same,Ethene ± s.d.,[2]; 0 days,0.00 ± 0.00 µmol
same,PCE ± s.d.,[2]; 0 days,19.54 ± 0.00 µmol
same,TCE ± s.d.,[2]; 0 days,0.00 ± 0.00 µmol
same,VC ± s.d.,[2]; 0 days,0.00 ± 0.00 µmol
same,Cl^− Rate ± s.d.,[2]; 22 days,2.64 ± 0.00 µmol
same,Cl^− ± s.d.,[2]; 22 days,58.02 ± 0.10 µmol
same,DCE ± s.d.,[2]; 22 days,10.02 ± 0.06 µmol
same,Ethene ± s.d.,[2]; 22 days,0.25 ± 0.07 µmol
same,PCE ± s.d.,[2]; 22 days,0.00 ± 0.00 µmol
same,TCE ± s.d.,[2]; 22 days,0.00 ± 0.00 µmol
same,VC ± s.d.,[2]; 22 days,0.10 ± 0.03 µmol
same,Cl^− Rate ± s.d.,[2]; 36 days,1.18 ± 0.01 µmol
same,Cl^− ± s.d.,[2]; 36 days,63.68 ± 0.46 µmol
same,DCE ± s.d.,[2]; 36 days,7.18 ± 0.26 µmol
same,Ethene ± s.d.,[2]; 36 days,0.23 ± 0.19 µmol
same,PCE ± s.d.,[2]; 36 days,0.00 ± 0.00 µmol
same,TCE ± s.d.,[2]; 36 days,0.01 ± 0.02 µmol
same,VC ± s.d.,[2]; 36 days,0.08 ± 0.01 µmol
same,Cl^− Rate ± s.d.,[2]; 50 days,1.29 ± 0.06 µmol
same,Cl^− ± s.d.,[2]; 50 days,64.63 ± 2.77 µmol
same,DCE ± s.d.,[2]; 50 days,4.98 ± 0.67 µmol
same,Ethene ± s.d.,[2]; 50 days,0.20 ± 0.09 µmol
same,PCE ± s.d.,[2]; 50 days,0.00 ± 0.00 µmol
same,TCE ± s.d.,[2]; 50 days,0.00 ± 0.00 µmol
same,VC ± s.d.,[2]; 50 days,3.57 ± 1.88 µmol
